The text below walks through data of PubChem BioAssay (NCI).

Each structure is given as a SMILES string.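 In this assay, cells in 96-well plates receive the compound at five concentrations for 48 hours. Endpoints are linearly interpolated between the surrounding concentrations. GI50 marks 50% less growth. TGI is the concentration that stops growth completely.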

Among the test systems are KM12 colon; MDA-MB-435; RXF 393 renal; SF-539 CNS; MALME-3M melanoma; HOP-62 NSCLC; SF-268 CNS; M14 melanoma; HT29 colon; EKVX NSCLC.
Holding throughout (test): growth of human tumour cells (NCI), 48 h

As to `Cc1ccc(N)cc1[As]=[As]c1cc(N)ccc1C` (configuration not stated), the GI50 with KM12 colon was 1.95 µM; in the experiment with MDA-MB-435, 1.62 µM; with RXF 393 renal it was 1.19 µM; in the experiment on SF-539 CNS it was 1.39 µM; in the experiment on MALME-3M melanoma it was 0.679 µM; in the experiment on HOP-62 NSCLC it was 1.72 µM. Also, the GI50 with SF-268 CNS is 1.56 µM; in the experiment with M14 melanoma it was 1.71 µM. Moreover, the TGI came to 3.81 µM with KM12 colon; 3.25 µM with MDA-MB-435; 2.47 µM with RXF 393 renal; 2.76 µM in the experiment on SF-539 CNS; 2.03 µM with MALME-3M melanoma; 3.19 µM in the experiment with HOP-62 NSCLC. For the same compound, the TGI in the experiment on SF-268 CNS turned out to be 3.02 µM; with M14 melanoma it was 3.4 µM.

For `O=C1/C(=C\c2ccc(F)cc2)CN(C(=O)c2ccccc2F)C/C1=C\c1ccc(F)cc1`, the GI50 with KM12 colon is 0.371 µM; with MDA-MB-435, 0.547 µM; in the experiment on RXF 393 renal, 1.78 µM; in the experiment on SF-539 CNS, 1.72 µM; in the experiment on MALME-3M melanoma it was 2 µM; with HOP-62 NSCLC it was 2.04 µM. The GI50 is 2.02 µM in the experiment with SF-268 CNS, 0.373 µM in the experiment with HT29 colon and 1.51 µM with M14 melanoma. Further, the TGI with KM12 colon was found to be 1.32 µM; in the experiment with MDA-MB-435, 2.06 µM; in the experiment on RXF 393 renal it was 3.54 µM; in the experiment with SF-539 CNS it was 3.2 µM; in the experiment with MALME-3M melanoma it was 4.09 µM; in the experiment on HOP-62 NSCLC it was 4.66 µM. Moreover, the TGI was 4.97 µM in the experiment on SF-268 CNS, 1.35 µM with HT29 colon and 3.44 µM in the experiment on M14 melanoma.

On to `O=C(Nc1nc(-c2ccc(Cl)cc2)cs1)c1cc(O)c(O)c(O)c1`, for which the GI50 with KM12 colon is 315 µM; in the experiment with MDA-MB-435 it was 266 µM; with RXF 393 renal it was 166 µM; in the experiment on SF-539 CNS, 173 µM; in the experiment on MALME-3M melanoma, 266 µM; with HOP-62 NSCLC it was 255 µM. In addition, the GI50 in the experiment with SF-268 CNS is 146 µM; in the experiment on HT29 colon, 572 µM; in the experiment on M14 melanoma, 244 µM. Moreover, the TGI in the experiment on KM12 colon is 1460 µM; in the experiment with MDA-MB-435 it was 2980 µM; with RXF 393 renal, 923 µM; in the experiment with SF-539 CNS it was 843 µM; with MALME-3M melanoma, 2980 µM; in the experiment on HOP-62 NSCLC, 1880 µM. In addition, the TGI in the experiment with SF-268 CNS was 1400 µM; with HT29 colon it was 2250 µM; in the experiment with M14 melanoma, 4610 µM.

Take `Cc1ccc(C[As+](c2ccccc2)(c2ccccc2)c2ccccc2)cc1`: the GI50 in the experiment on KM12 colon is 0.385 µM; with MDA-MB-435, 0.552 µM; in the experiment on RXF 393 renal it was 1.62 µM; in the experiment with SF-539 CNS, 1.71 µM; in the experiment with MALME-3M melanoma, 0.297 µM; in the experiment on HOP-62 NSCLC, 1.5 µM. The figures for the GI50 in the experiment with SF-268 CNS, in the experiment on HT29 colon and with M14 melanoma were 1.08 µM, 0.313 µM and 0.704 µM, respectively. Besides, the TGI in the experiment on KM12 colon was determined as 4.46 µM; in the experiment on MDA-MB-435 it was 6.34 µM; with RXF 393 renal, 11.4 µM; in the experiment with SF-539 CNS, 28.3 µM; with MALME-3M melanoma it was 11.6 µM; in the experiment with HOP-62 NSCLC it was 32.9 µM. Moreover, the TGI was more than 42.2 µM in the experiment on SF-268 CNS, 11.5 µM in the experiment with HT29 colon and 10.8 µM in the experiment on M14 melanoma.

Regarding `COc1ccc(Cn2cc(COc3cc(/C=C/C(=O)c4cc(OC)c(OC)c(OC)c4)ccc3OC)nn2)cc1`, the GI50 in the experiment with KM12 colon was 3.23 µM; in the experiment with MDA-MB-435, 2.86 µM; with RXF 393 renal it was 2.29 µM; in the experiment on SF-539 CNS, 3.02 µM; in the experiment with MALME-3M melanoma it was 25.7 µM; with HOP-62 NSCLC, 2.72 µM. The GI50 in the experiment with SF-268 CNS is 3.75 µM; with HT29 colon it was 3.65 µM; in the experiment on M14 melanoma, 5.6 µM. For the same compound, the TGI is more than 100 µM in the experiment with KM12 colon; more than 100 µM in the experiment on MDA-MB-435; 6.88 µM in the experiment on RXF 393 renal; 12.9 µM with SF-539 CNS; more than 100 µM with MALME-3M melanoma; 7.97 µM in the experiment with HOP-62 NSCLC. The TGI with SF-268 CNS is more than 100 µM; with HT29 colon, 9.68 µM; in the experiment on M14 melanoma it was more than 100 µM.

Regarding `C=CCn1c2ccccc2c2c3c(c4c5ccccc5n(CC=C)c4c21)C(=O)N(O)C3=O`, the GI50 is 3.2 µM in the experiment with KM12 colon; 4.45 µM with MDA-MB-435; 3.94 µM with RXF 393 renal; 6.91 µM with MALME-3M melanoma; 2.49 µM in the experiment on HOP-62 NSCLC; 6.34 µM with EKVX NSCLC. The GI50 with SF-268 CNS was 3.72 µM; in the experiment on HT29 colon, 2.02 µM; with M14 melanoma, 2.31 µM. In addition, the TGI in the experiment on KM12 colon was 18.4 µM; with MDA-MB-435 it was 29.6 µM; in the experiment with RXF 393 renal, 19.6 µM; with MALME-3M melanoma, 26.7 µM; with HOP-62 NSCLC, 12.7 µM; with EKVX NSCLC, 30.6 µM. Besides, the TGI with SF-268 CNS was found to be 32.4 µM; in the experiment on HT29 colon, 4.9 µM; in the experiment with M14 melanoma, 26.2 µM.

Consider `COC(=O)[C@H](Cc1cn(C)cn1)NC(=O)[C@H](CC(=O)OCc1ccccc1)NC(=O)Nc1cc(C(F)(F)F)cc(C(F)(F)F)c1`, for which the GI50 in the experiment with KM12 colon is 14 µM; in the experiment with MDA-MB-435, 5.9 µM; in the experiment with SF-539 CNS, 12.4 µM; with MALME-3M melanoma, 3.28 µM; in the experiment on HOP-62 NSCLC, 5.03 µM; in the experiment on SF-268 CNS it was 4.51 µM. The GI50 in the experiment with HT29 colon is 13.9 µM; with M14 melanoma, 3.38 µM. The TGI is 30.7 µM in the experiment on KM12 colon; 18.8 µM in the experiment on MDA-MB-435; 25.6 µM with SF-539 CNS; 10.4 µM in the experiment with MALME-3M melanoma; 16.9 µM in the experiment on HOP-62 NSCLC; 18.1 µM with SF-268 CNS. For the same compound, the TGI with HT29 colon stood at 28.8 µM; with M14 melanoma, 11.3 µM.

As for `Nc1ccccc1C#C/C=C\C#Cc1ccccc1C#CCO`, the GI50 with KM12 colon was 1.81 µM; in the experiment on MDA-MB-435, 1.51 µM; with RXF 393 renal it was 9.25 µM; with SF-539 CNS it was 10.8 µM; with HOP-62 NSCLC it was 8.35 µM; with EKVX NSCLC, 12 µM. The GI50 in the experiment on SF-268 CNS is 7.6 µM; in the experiment on M14 melanoma it was 7.68 µM. Moreover, the TGI with KM12 colon was 7.8 µM; in the experiment on MDA-MB-435, 4.21 µM; in the experiment with RXF 393 renal, 32.1 µM; in the experiment with SF-539 CNS, 27.1 µM; in the experiment with HOP-62 NSCLC, more than 50 µM; with EKVX NSCLC, more than 50 µM. In addition, the TGI in the experiment with SF-268 CNS stood at 24.3 µM; with M14 melanoma, 26 µM.

Turning to `CN(C)c1ccc(/C=C(\C#N)c2cc3ccccc3[nH]2)cc1`, the GI50 in the experiment on KM12 colon was 0.495 µM; with MDA-MB-435, 0.228 µM; in the experiment on SF-539 CNS, 1.97 µM; with MALME-3M melanoma it was 2.32 µM; in the experiment with HOP-62 NSCLC it was 1.16 µM; in the experiment on EKVX NSCLC it was 2.94 µM. The GI50 in the experiment with SF-268 CNS was 2.52 µM; in the experiment with HT29 colon, 0.375 µM; in the experiment with M14 melanoma, 0.551 µM. For the same compound, the TGI with KM12 colon was more than 100 µM; in the experiment on MDA-MB-435, 0.641 µM; with SF-539 CNS, 35.1 µM; with MALME-3M melanoma it was more than 100 µM; in the experiment with HOP-62 NSCLC it was 4.54 µM; with EKVX NSCLC, more than 100 µM. Besides, the TGI with SF-268 CNS was more than 100 µM; in the experiment on HT29 colon, 15.9 µM; with M14 melanoma, more than 100 µM.

For `COc1ccc(OC)c(Nc2nc3nonc3nc2Nc2cccc(Br)c2)c1`, the GI50 was 1.24 µM with KM12 colon; 0.538 µM in the experiment with MDA-MB-435; 1.25 µM in the experiment with SF-539 CNS; 0.471 µM in the experiment with MALME-3M melanoma; 1.62 µM in the experiment with HOP-62 NSCLC; 0.982 µM with SF-268 CNS. In addition, the GI50 in the experiment with HT29 colon is 1.13 µM; in the experiment with M14 melanoma, 1.5 µM. Further, the TGI in the experiment on KM12 colon is more than 100 µM; in the experiment on MDA-MB-435, more than 100 µM; with SF-539 CNS, 29.5 µM; in the experiment with MALME-3M melanoma, 5.52 µM; with HOP-62 NSCLC, 7.43 µM; in the experiment on SF-268 CNS, more than 100 µM. For the same compound, the TGI in the experiment with HT29 colon is more than 100 µM; in the experiment with M14 melanoma, 44.7 µM.

For the compound `CC12OC(CC(O)C1O)n1c3ccccc3c3c4c(c5c6ccccc6n2c5c31)C(=O)N(CCN1CCOCC1)C4=O` (configuration not stated), the GI50 in the experiment on KM12 colon is 1.25 µM; in the experiment on MDA-MB-435, 1.46 µM; in the experiment on RXF 393 renal, 1.31 µM; in the experiment with MALME-3M melanoma, 0.921 µM; in the experiment on HOP-62 NSCLC, 1.27 µM; in the experiment on EKVX NSCLC, 1.48 µM. For the same compound, the GI50 with SF-268 CNS is 1.08 µM; in the experiment with HT29 colon, 0.968 µM; with M14 melanoma, 0.912 µM. Further, the TGI was 6.5 µM in the experiment with KM12 colon; 7.56 µM in the experiment with MDA-MB-435; 5.03 µM in the experiment on RXF 393 renal; 5.27 µM in the experiment on MALME-3M melanoma; 4.22 µM in the experiment with HOP-62 NSCLC; 8.94 µM in the experiment on EKVX NSCLC. Moreover, the TGI with SF-268 CNS is 7.87 µM; with HT29 colon it was 6.83 µM; in the experiment on M14 melanoma, 4.54 µM.

Regarding `O=C1c2ccccc2C(=O)N1CCCOCc1c[nH]c(=O)[nH]c1=O`, the TGI with KM12 colon, in the experiment on RXF 393 renal, in the experiment on SF-539 CNS, with MALME-3M melanoma, in the experiment on HOP-62 NSCLC and in the experiment on EKVX NSCLC was more than 100 µM each time. The TGI in the experiment on SF-268 CNS, with HT29 colon and with M14 melanoma was more than 100 µM each time.

Take `COc1cc(OCc2ccccc2)c2c(CCC(=O)O)cc(=O)oc2c1` (tested in a mixture with another compound): the TGI with KM12 colon, with MDA-MB-435, with SF-539 CNS, in the experiment with MALME-3M melanoma, with EKVX NSCLC and in the experiment with SF-268 CNS was more than 100 µM throughout. For the same compound, the TGI with HT29 colon and in the experiment with M14 melanoma was more than 100 µM each time.
